Consider 1 compound from patent publication US10450260B2, “NO- and H2S-releasing compounds” (RESEARCH FOUNDATION OF THE CITY UNIVERSITY OF NEW YORK, priority 2011, dated 2019).

Test [1] concerns the target T1, ovine COX-1 (Ovis aries, UniProt P05979).
T1 construct: purchased Cayman Chemicals (Ann Arbor, Mich.)
T1 sequence (P05979 25-600): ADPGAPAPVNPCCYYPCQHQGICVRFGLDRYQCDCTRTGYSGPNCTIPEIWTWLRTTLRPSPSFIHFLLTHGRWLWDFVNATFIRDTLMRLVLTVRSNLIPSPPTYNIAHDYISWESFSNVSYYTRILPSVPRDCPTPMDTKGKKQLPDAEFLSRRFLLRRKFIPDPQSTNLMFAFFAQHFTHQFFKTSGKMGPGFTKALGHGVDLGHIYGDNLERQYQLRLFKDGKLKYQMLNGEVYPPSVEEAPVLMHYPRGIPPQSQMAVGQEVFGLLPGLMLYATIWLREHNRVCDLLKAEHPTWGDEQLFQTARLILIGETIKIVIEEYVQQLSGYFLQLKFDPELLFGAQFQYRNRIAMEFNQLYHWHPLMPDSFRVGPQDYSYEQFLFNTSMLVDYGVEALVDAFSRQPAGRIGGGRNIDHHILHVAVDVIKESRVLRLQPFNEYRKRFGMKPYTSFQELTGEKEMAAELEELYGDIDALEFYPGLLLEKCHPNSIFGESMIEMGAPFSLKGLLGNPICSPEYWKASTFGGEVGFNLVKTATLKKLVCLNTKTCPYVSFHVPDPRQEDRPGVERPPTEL
Nature of the test: COX-1 enzyme activity, colorimetric inhibitor screening kit. In kind it is biochemical.

The target in test [2] is T2, ovine COX-2 (Ovis aries, UniProt P79208).
T2 construct: purchased Cayman Chemicals (Ann Arbor, Mich.)
T2 sequence (P79208 17-603): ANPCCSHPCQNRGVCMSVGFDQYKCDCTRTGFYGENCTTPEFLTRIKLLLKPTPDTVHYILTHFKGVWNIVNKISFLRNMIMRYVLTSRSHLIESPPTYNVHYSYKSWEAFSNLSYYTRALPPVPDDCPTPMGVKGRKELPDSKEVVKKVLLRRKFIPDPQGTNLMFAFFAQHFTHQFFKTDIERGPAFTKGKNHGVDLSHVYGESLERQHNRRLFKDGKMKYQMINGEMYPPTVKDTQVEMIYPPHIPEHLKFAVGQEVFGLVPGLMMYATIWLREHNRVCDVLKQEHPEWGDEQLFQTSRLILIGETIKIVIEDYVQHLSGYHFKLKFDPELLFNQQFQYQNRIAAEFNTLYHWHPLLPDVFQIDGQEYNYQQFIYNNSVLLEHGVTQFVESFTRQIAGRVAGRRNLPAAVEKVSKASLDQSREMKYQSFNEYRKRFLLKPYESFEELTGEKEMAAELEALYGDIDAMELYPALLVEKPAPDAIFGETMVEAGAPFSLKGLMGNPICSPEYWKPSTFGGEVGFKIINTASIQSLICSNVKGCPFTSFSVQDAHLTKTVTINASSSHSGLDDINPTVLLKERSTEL
Nature of the test: COX-2 enzyme activity, colorimetric inhibitor screening kit. It counts as biochemical.

The test system of test [3] is HT-29 human colon cancer cells. Nature of the test: MTT cell growth inhibition, HT-29. It counts as cell-based. Conditions: Homo sapiens, HT-29; 24 hours (Table 7); read-out: IC50 for cell growth inhibition, Colon HT-29. As to the method: HT-29, SW-480 and HCT-15 human colon adenocarcinoma, MIA PaCa-2 and BxPC-3 human pancreatic cancer, LNCAP human prostate cancer, A549 human lung cancer, MCF-7 (estrogen receptor positive), MDA-MB 231 and SK-BR-3 (estrogen receptor negative) human breast cancer, and Jurkats human leukemia cell lines were obtained from American Type Tissue Collection (Manassas, Va.). All cells lines were grown as monolayers except for the Jurkats which were grown in suspension. The pancreatic and breast cancer cells were grown in Dulbecco's modified Eagle's medium, the prostate, Jurkat, SW-480 and HCT-15 colon cells were grown in RPMI 1640 medium, the lung cells were grown in F-12 and the colon HT-29 cells were grown in McCoy 5A. All media were supplemented with 10% fetal calf serum (Invitrogen, Carlsbad, Calif.) penicillin (50 U/ml), and streptomycin (50 μg/ml) (Invitrogen, Carlsbad, Calif.). Cells were seeded on culture dishes at a density of 25×10^3 cells/cm^2 and incubated at 37° C. in 5% CO2 and 90% relative humidity. Single cell suspensions were obtained by trypsinization (0.05% trypsin/EDTA), and cells were counted using a hemocytometer. Viability was determined by the trypan blue dye exclusion method.
Cell growth inhibitory effect of NOSH compounds were measured using a colorimetric MTT assay kit (Roche, Indianapolis, Ind.). Cancer cells were plated in 96-well plates at a density of 50,000 cells/well. The cells were incubated for 24 h with different concentrations of NOSH compounds. After the indicated time, 10 μl of MTT dye (3-[4,5-dimethylthiazol-2-yl]-2,5-diphenyl tetrazolium bromide, 5 mg/ml in phosphate buffered saline), was added to each well, and the plates were incubated for 2 hours at 37° C. Then, the media was aspirated, and add 100 μl of the solubilization solution (10% SDS in 0.01 M HCl) was added to each well to solubilize the formant crystals. The absorbance of the plates was measured on an ELISA reader at a wavelength of 570 nm. Each sample was performed in triplicate, and the entire experiment was repeated three times.
HT-29 human colon cancer cells were obtained from American Type Tissue Collection (Manassas, Va.) and grown as monolayer in McCoy 5A media that was supplemented with 10% fetal calf serum (Invitrogen, Carlsbad, Ca.), penicillin (50 U/ml), and streptomycin (50 μg/ml) (Invitrogen, Carlsbad, Calif.).
Growth inhibition was measured using a colorimetric MTT assay kit (Roche, Indianapolis, Ind.). Proliferation (PCNA) was assessed using an ELISA kit from Calbiochem, (La Jolla, Calif.). Cell cycle phase distributions and apoptosis of control and treated cells were determined as previously described. All methods are described in Chattopadhyay et al., Biochemical Pharmacology, 2012, 83(6), 715-722.
HT-29, SW-480 and HCT-15 human colon adenocarcinoma, MIA PaCa-2 and BxPC-3 human pancreatic cancer, LNCAP human prostate cancer, A549 and H383 human lung cancer, MCF-7, MDA-MB 231 and SK-BR-3 human breast cancer and Jurkat T cell human leukemia cell lines were obtained from American Type Tissue Collection (Manassas, Va.) All cells lines were grown as monolayers except for the Jurkat T cells which were grown as suspension culture. The pancreatic and breast cancer cells were grown in Dulbecco's modified Eagle's medium, the prostate, Jurkat, SW-480 and HCT-15 colon cells were grown in RPMI 1640 medium, the lung cells were grown in F-12 and the colon HT-29 cells were grown in McCoy 5A. All media were supplemented with 10% fetal calf serum (Invitrogen, Carlsbad, Calif.) penicillin (50 U/ml), and streptomycin (50 μg/ml) (Invitrogen, Carlsbad, Calif.). Cells were seeded on culture dishes at a density of 25×10^3 cells/cm^2 and incubated at 37° C. in 5% CO2 and 90% relative humidity. Single cell suspensions were obtained by trypsinization (0.05% trypsin/EDTA), and cells were counted using a hemacytometer. The final DMSO concentration was adjusted in all media to 1%. Viability was determined by the trypan blue dye exclusion method. […]

Take `CC1=C(CC(=O)O)c2cc(F)ccc2/C1=C\c1ccc([S+](C)[O-])cc1` (stereo not shown) [sulindac, reference compound]: the values for the inhibition at 800 µM in test [1] (800 μM (Table 8)) and in test [2] (800 μM (Table 8)) were 84% and 66.8%, respectively. Further, in test [1] (800 μM (Table 8), 800 µM), the “COX 1-% Inhibition” value amounted to 81.0%. For the same compound, the inhibition at 1600 µM came out at 89.1% in test [1] (1600 μM (Table 8)) and 71.1% in test [2] (1600 μM (Table 8)). In test [2] (800 μM (Table 8), 800 µM), the “COX-2-% Inhibition” value is given as 68.5%. Also, in test [3], the IC50 stood at 800 µM.
